In patent US11390618B2, “Inhibitors of cyclin-dependent kinases” (Kinnate Biopharma Inc., priority 2018, dated 2022):

Target: CDK12 wt/CycK (Homo sapiens (Human), UniProt Q9NYV4)
Assay: Radiometric protein kinase assay (33PanQinase Activity Assay), Assay Condition A (thiol containing conditions)
Assay type: biochemical
Conditions: thiol containing conditions (1.2 mM DTT), ATP at apparent Km
Method: Objective: The IC50 profile of test compounds was determined using three protein kinases.
Test compounds: The compounds were provided as pre-weighed powders in vials. The compounds were dissolved to 1×10^−02M by adding DMSO. 100 μl of each of the resulting stock solutions were transferred into column 2 of four 96 well “master plates”.
Prior to testing, the 1×10^−02M stock solutions in column 2 of the master plates were subjected to a serial, semi-logarithmic dilution using 100% DMSO as a solvent. […] Column 1 and 7 were filled with 100% DMSO as controls. […]
The reaction cocktails were incubated at 30° C. for 60 minutes. […] Incorporation of ^33Pi was determined with a microplate scintillation counter (Microbeta, Wallac). […]
Evaluation of raw data: The median value of the counts in column 1 (n=8) of each assay plate was defined as “low control”. This value reflects unspecific binding of radioactivity to the plate in the absence of a protein kinase but in the presence of the substrate. […]
As part of the data evaluation the low control value from a particular plate was subtracted from the high control value as well as from all 80 “compound values” of the corresponding plate. The residual activity (in %) for each well of a particular plate was calculated by using the following formula: Res. Activity (%)=100×[(cpm of compound−low control)/(high control−low control)] […]

CDK12 wt/CycK, sequence (Q9NYV4 whole entry): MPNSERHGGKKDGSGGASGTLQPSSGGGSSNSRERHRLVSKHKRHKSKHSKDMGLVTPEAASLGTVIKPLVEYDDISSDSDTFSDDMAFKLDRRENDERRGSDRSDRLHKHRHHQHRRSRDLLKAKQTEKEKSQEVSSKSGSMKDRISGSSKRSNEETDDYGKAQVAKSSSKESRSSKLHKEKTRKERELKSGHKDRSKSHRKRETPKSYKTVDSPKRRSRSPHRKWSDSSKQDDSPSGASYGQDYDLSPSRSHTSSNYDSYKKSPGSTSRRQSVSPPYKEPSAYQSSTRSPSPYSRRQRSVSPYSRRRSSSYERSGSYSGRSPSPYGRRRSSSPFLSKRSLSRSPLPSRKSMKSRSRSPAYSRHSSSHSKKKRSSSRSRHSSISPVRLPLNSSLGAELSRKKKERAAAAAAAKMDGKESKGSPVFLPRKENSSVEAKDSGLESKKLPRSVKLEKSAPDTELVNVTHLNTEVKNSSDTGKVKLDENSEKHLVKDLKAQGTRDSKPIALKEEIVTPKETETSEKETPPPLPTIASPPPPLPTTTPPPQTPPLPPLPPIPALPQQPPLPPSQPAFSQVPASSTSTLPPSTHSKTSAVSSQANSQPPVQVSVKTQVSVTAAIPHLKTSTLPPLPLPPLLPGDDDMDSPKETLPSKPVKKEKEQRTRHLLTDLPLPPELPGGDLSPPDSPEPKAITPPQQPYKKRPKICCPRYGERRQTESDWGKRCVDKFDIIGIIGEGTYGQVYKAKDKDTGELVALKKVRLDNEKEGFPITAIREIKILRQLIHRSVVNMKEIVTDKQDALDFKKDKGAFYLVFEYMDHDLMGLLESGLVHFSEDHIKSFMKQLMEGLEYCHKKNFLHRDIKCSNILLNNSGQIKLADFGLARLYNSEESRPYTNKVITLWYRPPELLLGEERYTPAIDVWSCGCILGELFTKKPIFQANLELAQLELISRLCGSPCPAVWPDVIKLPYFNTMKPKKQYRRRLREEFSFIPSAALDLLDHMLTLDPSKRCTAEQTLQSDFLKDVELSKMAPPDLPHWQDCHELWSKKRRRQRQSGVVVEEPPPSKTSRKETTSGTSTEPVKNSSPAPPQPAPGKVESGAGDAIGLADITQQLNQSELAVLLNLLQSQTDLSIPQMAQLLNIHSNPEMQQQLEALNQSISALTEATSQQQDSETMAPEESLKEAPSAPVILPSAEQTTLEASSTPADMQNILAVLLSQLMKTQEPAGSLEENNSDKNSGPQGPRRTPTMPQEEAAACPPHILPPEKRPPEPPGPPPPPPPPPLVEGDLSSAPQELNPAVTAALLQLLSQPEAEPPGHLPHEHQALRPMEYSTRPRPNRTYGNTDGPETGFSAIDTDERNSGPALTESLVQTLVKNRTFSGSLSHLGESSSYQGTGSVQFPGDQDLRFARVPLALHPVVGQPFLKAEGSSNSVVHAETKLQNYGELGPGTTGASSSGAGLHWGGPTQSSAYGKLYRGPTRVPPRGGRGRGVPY
CDK12 wt/CycK, sequence (O75909 whole entry partner): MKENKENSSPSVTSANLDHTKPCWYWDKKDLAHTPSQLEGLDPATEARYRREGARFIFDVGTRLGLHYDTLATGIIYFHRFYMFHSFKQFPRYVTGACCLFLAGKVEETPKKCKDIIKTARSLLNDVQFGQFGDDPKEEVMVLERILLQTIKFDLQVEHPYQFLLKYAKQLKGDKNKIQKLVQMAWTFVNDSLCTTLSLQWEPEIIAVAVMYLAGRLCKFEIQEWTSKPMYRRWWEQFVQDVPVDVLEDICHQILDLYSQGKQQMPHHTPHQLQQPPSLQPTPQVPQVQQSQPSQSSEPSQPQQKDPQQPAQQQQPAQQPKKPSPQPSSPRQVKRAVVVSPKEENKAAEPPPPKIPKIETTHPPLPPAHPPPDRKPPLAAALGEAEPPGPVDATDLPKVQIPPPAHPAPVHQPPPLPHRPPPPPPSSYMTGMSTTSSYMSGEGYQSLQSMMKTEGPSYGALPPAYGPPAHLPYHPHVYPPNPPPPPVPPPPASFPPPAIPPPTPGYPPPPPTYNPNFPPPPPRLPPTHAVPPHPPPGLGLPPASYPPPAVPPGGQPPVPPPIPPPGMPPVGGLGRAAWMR

COc1nc(N[C@@H]2CCN(C(=O)c3ccc(NC(=O)/C=C/CN4CC[C@@H](F)C4)cn3)C2)ncc1Cl [Example 170, (E)-N-(6-((R)-3-((5-chloro-4-methoxypyrimidin-2-yl)amino)pyrrolidine-1-carbonyl)pyridin-3-yl)-4-((R)-3-fluoropyrrolidin-1-yl)but-2-enamide]
IC50: 100 to 1000 nM

(R)—N-(3-(3-((5-chloropyrimidin-2-yl)amino)pyrrolidine-1-carbonyl)phenyl)-2-cyano-3-(dimethylamino)acrylamide [Example 135]
IC50: 1000 to 10000 nM
